Measured values as given in patent publication US8507498B2, “4, 6-disubstituted aminopyrimidine derivatives as inhibitors of protein kinases” (Ingenium Pharmaceuticals GmbH, priority 2007, dated 2013).
pIC50: −log10 of the molar value. “Also recorded” adds a separate entry of the source.

Key:
CDK1/CycB = CDK1/CycB (Homo sapiens, UniProt P06493); assay: General kinase assay (Example 80); assay type: biochemical; details: ATP 1 μM
Method: (§1) The inhibitory effect of compounds according to the present invention on the activity of protein kinases can be measured according to the following protocol: • Reaction Volume: 40 μl • Reaction Time: 60 min • Reaction Temperature: room temperature • Assay Plate: 96 well U bottom plate (Greiner, 650161) • MultiScreen-PH Plate: 96 well MAPH Filter Plates (Millipore, MAPHNOB50) • Filter Washing Solution: 0.75% H3PO4 • Scintillation Liquid Supermix Liquid Scintillator (PerkinElmer, 1200-439) Controls: • Negative Control (C−): 100 mM EDTA (Ethylenediaminetetraacetic acid), no Inhibitor • Positive Control (C+): no Inhibitor Reaction Buffer: • 20 mM Tris (Tris(hydroxymethyl)aminomethane hydrochloride), pH 7.5 • 10 mM MgCl2 • 1 mM DTT Final Assay Concentrations: • Kinase: Use kinase conc. yielding 10% ATP turn over. • ATP: 1 μM • Adenosine 5′-[-^33P]triphosphate:12.5 μCi/ml (Amersham Biosciences, BF1000) • Substrate: Myelin Basic Protein 10 μM (Invitrogen, 13228-010) Pipetting Sequence: • 1) Add 10 μl 4 fold concentrated Substrate+4 fold concentrated ATP in […] concentrated Reaction Buffer to each well of Assay Plate • 2) Add 10 μl 4 fold concentrated inhibitor in 4% DMSO in H2O to each well except to C− and C+wells • 3) Add 10 μl 4% DMSO in H2O to C− and C+wells • 4) Add 10 μl 500 mM EDTA in H2O to C− wells • 5) Add 10 μl 50 μCi/ml Adenosine 5′-[-^33P]triphosphate in H2O to each well • 6) Add 10 μl 4 fold concentrated kinase in Reaction Buffer to each well • 7) Incubate 1 hr at room temperature • 8) Add 10 μl 50 mM EDTA in H2O to each well except to C− wells • 9) Prepare MAPH plates by adding 200 μl 0.75% H3PO4 to each well • 10) Exhaust 0.75% H3PO4 using Millipore vacuum station • 11) Add 60 μl 0.75% H3PO4 to each well of MAPH Filter Plate • 12) Transfer 30 μl sample per well from Assay Plate to corresponding well of MAPH Filter Plate • 13) Incubate 30 min at room temperature • 14) Wash each well of MAPH Filter Plates 3× with 200 μl 0.75% H3PO4 using Millipore vacuum station. • 15) Add 20 μl Scintillation Liquid to each well of MAPH Filter Plate • 16) Seal MAPH Filter Plate • 17) Store MAPH Filter Plate 30 min in darkness • 18) Quantify radioactivity Results:
(§2) IC50s were calculated for each kinase based on serial dilutions.

CDK2/CycA = biological target: T1, CDK2/CycA (Homo sapiens, UniProt P24941); assay: General kinase assay (Example 80); assay type: biochemical; details: ATP 1 μM
T1 construct: purchased ProQinase (Freiburg, Germany)
Method: (§3) Kinase assays determining CDK2/CyclinA and CDK5/p35 activity were performed as described by the manufacturer's recommendations (ProQinase (Freiburg, Germany) for CDK2/CyclinA and Upstate for CDK5/p35).
as §1, §2

CDK5/p35 = biological target: T2, CDK5/p35 (Homo sapiens, UniProt Q00535); assay: General kinase assay (Example 80); assay type: biochemical; details: ATP 1 μM
T2 construct: purchased Upstate
Method: as §3, §1, §2

CDK9/CycT1 = biological target: T3, CDK9/CycT1 (Homo sapiens, UniProt P50750); assay: General kinase assay (Example 80); assay type: biochemical; details: ATP 1 μM
T3 construct: made in house; host or cells: HEK293 cells (ATCC CRL-1573), recombinant adenovirus
Excerpt: Both cDNA fragments were cloned by PCR into pDONR201 vectors using the gateway recombination system (Invitrogen) according to the manufacturer's recommendations. The fragments were subcloned into a gateway-adapted shuttle vector (pPM7) for production of recombinant adenovirus. All plasmids were verified by restriction digests and sequencing analysis.
Expression and purification of CDK9/Cyclin T1 proteins was in principle performed as described by Cotten et al. (M. Cotten et al., Nucleic acids research, 2003, 31(28), 128).
Kinase assays using CDK9/Cyclin T1 were performed in principle as described by Cotten et al. (M. Cotten et al., Nucleic acids research, 2003, 31(28), 128).
as §2

HCT116 = assay: Growth assay using Alamar Blue; assay type: cell-based; details: Homo sapiens, HCT-116, read-out: IC50 against cell line HCT116
Method: (§4) Cells were seeded in 384-well plates (white, Greiner: 781080) at a density of […] cells per well in medium (RPMI+10% FCS).
(§5) Cells were incubated in 25 μl medium/well and were grown over night at 37° C., 6% CO2. On the following day compounds were added in DMSO in serial fold dilutions in fresh medium. Negative control wells were incubated without cells. Positive control wells were incubated with cells but without inhibitors (DMSO only). These wells served as data points to determine relative growth (given in % of the DMSO control [=100%]). The cell number was determined by addition of 5 μL Alamar Blue™ (Biosource DAL1100) to each well. Fluorescence was measures with an Analyst GT machine (Molecular Devices) at an excitation wavelength of 560 nm and an emission wavelength of 590 nm.
(§6) The following cell lines were used: A2780 (ECACC order number 93112519; human ovarian carcinoma; Semin Oncol (1984) 11:285; Cancer Res (1987) 47:414), B16F1 (ATCC order number CRL-6323; melanoma; Nat. New Biol. 242: 148-149, 1973); HCT116 (ATCC order number CCL-247; Colorectal carcinoma; Cancer Res (1981) 41:1751; Cancer (1995) 76:201), HT29 (ATTC order number HTB-38; colorectal adenocarcinoma; J. Biol. Chem. 271: 9490-9496, 1996) HepG2 (ATCC order number HB-8065; hepatocellular carcinoma; J. Biol. Chem. 271: 10073-10078, 1996), J774 (ATCC order number TIB-67; reticulum cell sarcoma; J. Biol. Chem. 271: 18431-18436, 1996); MCF7 (ATCC order number HTB-22; Breast carcinoma; J Natl Cancer Inst (1973) 51:1409; Cancer Res (1993) 53:5193), PM1 (obtainable from the National Institute of Allergy and Infectious Diseases; Division of AIDS via the NIH AIDS Research & Reference Reagent Program; Lusso P et al (1995), J Virol 69: 3712-3720) and U373-MAGI-CCR5 (obtainable from the National Institute of Allergy and Infectious Diseases; Division of AIDS via the NIH AIDS Research & Reference Reagent Program; Kensinger R D et al (2004), Antimicrob Agents Chemother 48: 1614-1623).
(§7) IC50s were calculated for each cell line based on serial dilutions.

U373-MAGI-CCR5E = assay: Growth assay using Alamar Blue; assay type: cell-based; details: read-out: IC50 against cell line U373-MAGI-CCR5E
Method: as §4, §5, §6, §7

[1] = tested on: SNI mice (mechanical allodynia); assay: Spared nerve injury (SNI) model, von Frey assay; assay type: in vivo; details: 30 mg/kg per os 30 min prior to measurement, day 107 post SNI, vs vehicle
Method: Wildtype mice (strain C3HeB/FeJ) (age, sex and weight matched) were anesthetized with Hypnorm (0.315 mg/ml fentanyl citrate+10 mg/ml fluanisone; Janssen)/Hypnovel (5 mg/ml midazolam; Roche Applied Sciences)/water at a ratio of 1:1:2 at 4 μl/g prior to surgical preparation.
Subsequently, an incision was made under aseptic precautions in the ipsi-lateral right hind leg of all mice just above the level of the knee, exposing the three terminal branches of the sciatic nerve: the common peroneal, tibial, and sural nerves. The common peroneal and tibial nerves were ligated tightly with 7/0 silk and sectioned distal to the ligation removing ≈2 mm of distal nerve stump. The sural branch remained untouched during the procedure (denoted herein “SNI ipsi”). The overlying muscle and skin was sutured, and the animals were allowed to recover and to permit wound healing. […]
Injection of inhibitor or vehicle, and subsequent measurements of paw withdrawal threshold to mechanical stimulation in von Frey assays were performed at day 107 post SNI. Reflex nociceptive responses to mechanical stimulation were measured in a von Frey assay 30 min after each injection. […]
Mechanical thresholds of SNI mice were quantified using the up-down method based on Chaplan et al. (1994) and Malmberg and Basbaum (1998). […]

CDK4/CycD1 = CDK4/CycD1 (Homo sapiens, UniProt P11802); assay: General kinase assay (Example 80); assay type: biochemical; details: ATP 1 μM
Method: as §1, §2

CDK6/CycD3 = CDK6/CycD3 (Homo sapiens, UniProt Q00534); assay: General kinase assay (Example 80); assay type: biochemical; details: ATP 1 μM
Method: as §1, §2

HepG2 = assay: Growth assay using Alamar Blue; assay type: cell-based; details: Homo sapiens, read-out: IC50 against cell line HepG2
Method: as §4, §5, §6, §7

PM1 = assay: Growth assay using Alamar Blue; assay type: cell-based; details: read-out: IC50 against cell line PM1
Method: as §4, §5, §6, §7

Chain of CDK1/CycB (P06493 whole entry, species assumed): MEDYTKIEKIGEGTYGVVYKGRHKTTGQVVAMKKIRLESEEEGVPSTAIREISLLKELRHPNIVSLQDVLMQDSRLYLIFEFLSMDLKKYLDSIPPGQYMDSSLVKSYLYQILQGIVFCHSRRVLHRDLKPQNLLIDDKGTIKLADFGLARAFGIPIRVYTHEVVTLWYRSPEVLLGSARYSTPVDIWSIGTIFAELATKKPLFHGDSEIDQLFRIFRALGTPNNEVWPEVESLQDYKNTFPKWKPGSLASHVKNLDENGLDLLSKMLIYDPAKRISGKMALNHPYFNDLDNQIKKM
Chain of CDK1/CycB (P14635 whole entry partner, species assumed): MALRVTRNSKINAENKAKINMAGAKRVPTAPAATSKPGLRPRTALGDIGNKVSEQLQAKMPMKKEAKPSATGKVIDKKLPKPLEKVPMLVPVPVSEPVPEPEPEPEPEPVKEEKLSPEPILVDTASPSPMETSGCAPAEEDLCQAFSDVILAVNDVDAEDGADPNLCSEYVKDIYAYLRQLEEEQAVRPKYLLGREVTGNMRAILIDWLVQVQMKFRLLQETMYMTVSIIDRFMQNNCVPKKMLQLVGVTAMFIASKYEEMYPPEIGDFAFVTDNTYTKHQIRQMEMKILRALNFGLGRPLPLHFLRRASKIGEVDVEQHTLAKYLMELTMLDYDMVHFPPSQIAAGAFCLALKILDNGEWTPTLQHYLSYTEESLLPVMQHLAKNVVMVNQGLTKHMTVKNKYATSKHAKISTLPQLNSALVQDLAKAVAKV
T2 sequence (Q00535 whole entry): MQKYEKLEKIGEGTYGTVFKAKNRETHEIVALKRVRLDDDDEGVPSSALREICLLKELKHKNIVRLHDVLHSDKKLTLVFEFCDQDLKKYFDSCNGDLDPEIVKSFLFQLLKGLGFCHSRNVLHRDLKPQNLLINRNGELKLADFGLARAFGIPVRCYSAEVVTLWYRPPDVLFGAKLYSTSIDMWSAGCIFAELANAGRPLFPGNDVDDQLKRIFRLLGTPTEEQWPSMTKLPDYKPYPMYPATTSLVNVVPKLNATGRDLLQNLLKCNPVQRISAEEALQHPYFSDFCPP
T2 sequence (Q15078 whole entry partner): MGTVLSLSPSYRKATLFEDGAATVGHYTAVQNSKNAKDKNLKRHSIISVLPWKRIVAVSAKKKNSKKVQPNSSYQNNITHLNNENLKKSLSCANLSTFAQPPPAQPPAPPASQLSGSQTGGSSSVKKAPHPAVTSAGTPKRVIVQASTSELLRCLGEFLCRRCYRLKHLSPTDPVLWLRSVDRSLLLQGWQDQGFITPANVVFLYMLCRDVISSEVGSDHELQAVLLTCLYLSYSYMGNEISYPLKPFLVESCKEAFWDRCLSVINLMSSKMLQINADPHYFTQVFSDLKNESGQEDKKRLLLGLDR
T3 sequence (P50750 whole entry, species assumed): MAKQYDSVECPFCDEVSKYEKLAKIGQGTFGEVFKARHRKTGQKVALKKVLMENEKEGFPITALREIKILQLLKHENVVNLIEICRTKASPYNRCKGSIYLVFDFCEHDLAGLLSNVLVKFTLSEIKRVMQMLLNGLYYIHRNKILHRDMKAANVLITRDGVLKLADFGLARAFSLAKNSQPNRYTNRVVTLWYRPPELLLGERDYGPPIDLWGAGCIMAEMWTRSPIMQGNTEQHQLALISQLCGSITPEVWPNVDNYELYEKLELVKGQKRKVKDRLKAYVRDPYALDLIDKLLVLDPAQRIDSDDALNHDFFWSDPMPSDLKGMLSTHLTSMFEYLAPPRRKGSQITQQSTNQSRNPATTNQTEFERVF
T3 sequence (O60563 whole entry partner, species assumed): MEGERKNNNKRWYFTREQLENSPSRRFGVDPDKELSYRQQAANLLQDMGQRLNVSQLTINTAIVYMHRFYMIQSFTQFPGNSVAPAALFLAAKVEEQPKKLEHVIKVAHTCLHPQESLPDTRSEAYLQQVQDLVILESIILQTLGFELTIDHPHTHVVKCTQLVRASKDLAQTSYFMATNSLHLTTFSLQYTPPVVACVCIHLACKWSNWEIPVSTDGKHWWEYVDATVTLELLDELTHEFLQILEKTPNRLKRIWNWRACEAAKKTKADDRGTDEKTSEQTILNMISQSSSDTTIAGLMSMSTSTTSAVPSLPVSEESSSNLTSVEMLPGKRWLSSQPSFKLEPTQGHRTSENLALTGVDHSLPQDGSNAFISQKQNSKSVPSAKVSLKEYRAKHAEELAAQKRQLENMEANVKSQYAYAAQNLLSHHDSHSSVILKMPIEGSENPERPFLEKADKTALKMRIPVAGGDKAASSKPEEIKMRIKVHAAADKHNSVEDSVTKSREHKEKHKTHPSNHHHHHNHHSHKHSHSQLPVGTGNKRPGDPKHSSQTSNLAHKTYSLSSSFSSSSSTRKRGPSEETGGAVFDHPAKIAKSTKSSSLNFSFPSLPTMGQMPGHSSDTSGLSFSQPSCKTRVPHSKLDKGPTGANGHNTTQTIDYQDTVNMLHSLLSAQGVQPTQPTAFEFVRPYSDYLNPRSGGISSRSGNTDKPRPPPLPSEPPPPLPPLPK
Chain of CDK4/CycD1 (P11802 whole entry, species assumed): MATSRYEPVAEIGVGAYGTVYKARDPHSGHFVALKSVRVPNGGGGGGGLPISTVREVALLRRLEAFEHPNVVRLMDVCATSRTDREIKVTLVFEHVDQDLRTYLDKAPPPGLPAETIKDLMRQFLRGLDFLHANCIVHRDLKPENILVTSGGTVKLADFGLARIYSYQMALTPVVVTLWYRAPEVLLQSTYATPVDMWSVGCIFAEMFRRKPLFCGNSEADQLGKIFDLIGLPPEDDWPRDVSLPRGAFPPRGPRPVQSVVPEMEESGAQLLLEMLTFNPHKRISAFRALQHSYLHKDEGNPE
Chain of CDK4/CycD1 (P24385 whole entry partner, species assumed): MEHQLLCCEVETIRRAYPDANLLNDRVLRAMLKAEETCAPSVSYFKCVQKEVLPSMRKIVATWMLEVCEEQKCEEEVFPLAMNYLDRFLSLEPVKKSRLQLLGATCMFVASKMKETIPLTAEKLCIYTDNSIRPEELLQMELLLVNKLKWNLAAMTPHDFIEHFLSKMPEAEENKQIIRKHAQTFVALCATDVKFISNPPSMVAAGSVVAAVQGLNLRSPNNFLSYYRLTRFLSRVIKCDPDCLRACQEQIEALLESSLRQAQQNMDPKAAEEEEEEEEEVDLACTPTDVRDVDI
Chain of CDK6/CycD3 (Q00534 whole entry, species assumed): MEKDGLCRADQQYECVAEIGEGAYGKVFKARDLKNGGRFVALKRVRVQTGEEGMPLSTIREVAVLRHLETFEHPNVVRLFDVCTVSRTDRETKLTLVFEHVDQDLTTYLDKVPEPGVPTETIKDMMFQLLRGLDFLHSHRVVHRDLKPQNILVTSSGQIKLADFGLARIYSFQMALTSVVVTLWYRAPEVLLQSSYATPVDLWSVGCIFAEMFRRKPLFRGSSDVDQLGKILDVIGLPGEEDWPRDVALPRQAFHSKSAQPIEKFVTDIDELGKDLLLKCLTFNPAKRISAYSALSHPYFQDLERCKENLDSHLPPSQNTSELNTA
Chain of CDK6/CycD3 (P30281 whole entry partner, species assumed): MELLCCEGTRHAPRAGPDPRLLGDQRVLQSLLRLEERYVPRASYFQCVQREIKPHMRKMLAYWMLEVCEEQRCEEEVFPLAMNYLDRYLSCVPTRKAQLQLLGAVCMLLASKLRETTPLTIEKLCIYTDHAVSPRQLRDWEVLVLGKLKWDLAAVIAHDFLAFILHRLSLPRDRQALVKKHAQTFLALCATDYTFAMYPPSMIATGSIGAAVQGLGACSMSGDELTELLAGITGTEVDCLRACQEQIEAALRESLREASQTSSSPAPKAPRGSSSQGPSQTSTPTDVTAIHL

Row | Compound | pIC50 (CDK1/CycB) | pIC50 (CDK2/CycA) | pIC50 (CDK5/p35) | pIC50 (CDK9/CycT1) | pIC50 (HCT116) | pIC50 (U373-MAGI-CCR5E) | melting point | paw withdrawal threshold to mechanical stimulation (von Frey), mechanical allodynia [1] | pIC50 (CDK4/CycD1) | pIC50 (CDK6/CycD3) | pIC50 (HepG2) | pIC50 (PM1)
1 | COc1ccccc1-c1cc(Nc2cccc(CS(=O)(=O)N(C)C)c2)ncn1 [Compound 20, C-{3-[6-(2-methoxy-phenyl)-pyrimidin-4-ylamino]-phenyl}-N,N-dimethyl-methanesulfonamide] | > 5.30 | > 5.70 | > 5.30 | > 6.30 | > 5.30 | > 5.00 | 187.5 to 188.8 °C | – | – | – | – | –
2 | CCOc1ccccc1-c1cc(Nc2cccc(CS(=O)(=O)NC)c2)ncn1 [Compound 43, C-{3-[6-(2-Ethoxy-phenyl)-pyrimidin-4-ylamino]-phenyl}-N-methyl-methanesulfonamide] | – | – | – | – | – | – | – | hypoalgesic effect; also recorded: significant increase of threshold values | – | – | – | –
3 | CNS(=O)(=O)Cc1cccc(Nc2cc(-c3ccccc3OC)ncn2)c1 [Compound 49, C-{3-[6-(2-methoxy-phenyl)-pyrimidin-4-ylamino]-phenyl}-N-methyl-methanesulfonamide] | > 5.30 | > 5.70 | > 5.30 | > 7.00 | > 5.70 | – | – | – | > 5.00 | > 5.00 | < 5.00 | > 5.30
4 | COCCNS(=O)(=O)Cc1cccc(Nc2cc(-c3ccccc3OC)ncn2)c1 [Compound 86, N-(2-methoxy-ethyl)-C-{3-[6-(2-methoxy-phenyl)-pyrimidin-4-ylamino]-phenyl}-methanesulfonamide] | > 5.00 | > 5.00 | > 5.00 | > 6.30 | > 5.30 | – | – | – | < 5.00 | – | – | –
